# Source: article PMC11467737, “Osteocalcin binds to a GPRC6A Venus fly trap allosteric site to positively modulate GPRC6A signaling” (FASEB BioAdvances, 2024)
# Bridge positions count the residues as written; N and C are the ends. Ends that are not written are not given here.
# Experiments:
# [1] = test system: wild‐type (Gprc6a +/+) and global knock out (Gprc6a −/−) mice; experiment: Serum FGF-21 (ELISA) after intraperitoneal injection in mice; assay type: in vivo, mouse; conditions: 2 nmol/g IP, 24 h, n ≥ 5
# Protocol: (§1) 8‐week‐old wild‐type (Gprc6a ^ +/+ ) and global knock out (Gprc6a ^ −/− ) mice were injected intraperitoneally with Ocn 20–29 (2 nmol/g body weight), or vehicle (saline; 10 μL/g body weight). Serum was collected at 24 h after intraperitoneal injection. Blood glucose levels were measured by using blood glucose strips and the Accu‐Check glucometer as described.[7], [31] A mouse IL‐6 ELISA Kit was purchased from Invitrogen (Waltham, MA, USA). Rat/Mouse FGF‐21ELISA Kit was obtained from Millipore Sigma (Burlington, MA, USA).
# (§2) The Gprc6a ^ −/− mouse model was created by replacing exon 2 of the GPRC6A gene with the hygromycin resistance gene, as described previously.[32] Mice were maintained and used in accordance with recommendations as described (National Research Council 1985; Guide for the Care and Use of Laboratory Animals Department of Health and Human Services Publication NIH 86–23, Institute on Laboratory Animal Resources, Rockville, MD) and following guidelines established by the University of Tennessee Health Science Center Institutional Animal Care and Use Committee. The animal study protocol was approved by the institutional review boards at University of Tennessee Health Science Center Institutional Animal Care and Use Committee.
# [2] = test system: wild‐type (Gprc6a +/+) and global knock out (Gprc6a −/−) mice; experiment: Blood glucose after intraperitoneal injection in mice; assay type: in vivo, mouse; conditions: 2 nmol/g intraperitoneal, 24 h, n ≥ 5
# Protocol: as §1, §2
# [3] = test system: wild‐type (Gprc6a +/+) and global knock out (Gprc6a −/−) mice; experiment: Serum IL-6 (ELISA) after intraperitoneal injection in mice; assay type: in vivo, mouse; conditions: 2 nmol/g IP, 24 h, n ≥ 5
# Protocol: as §1, §2
# human GPRC6A isoform 3 = biological target: T1, human GPRC6A isoform 3 (Homo sapiens, UniProt Q5T6X5); experiment: cAMP accumulation in HEK-293 cells transfected with human GPRC6A isoform 3; assay type: cell-based; conditions: isoform 3; Ocn 1.73-26.0 nM; 1 mM calcium; 40 min; Figure 2C
# T1 construct: expressed in transfected cells; host or cells: HEK-293
# T1 sequence (Q5T6X5 19-855 isoform Q5T6X5-3 limits assumed): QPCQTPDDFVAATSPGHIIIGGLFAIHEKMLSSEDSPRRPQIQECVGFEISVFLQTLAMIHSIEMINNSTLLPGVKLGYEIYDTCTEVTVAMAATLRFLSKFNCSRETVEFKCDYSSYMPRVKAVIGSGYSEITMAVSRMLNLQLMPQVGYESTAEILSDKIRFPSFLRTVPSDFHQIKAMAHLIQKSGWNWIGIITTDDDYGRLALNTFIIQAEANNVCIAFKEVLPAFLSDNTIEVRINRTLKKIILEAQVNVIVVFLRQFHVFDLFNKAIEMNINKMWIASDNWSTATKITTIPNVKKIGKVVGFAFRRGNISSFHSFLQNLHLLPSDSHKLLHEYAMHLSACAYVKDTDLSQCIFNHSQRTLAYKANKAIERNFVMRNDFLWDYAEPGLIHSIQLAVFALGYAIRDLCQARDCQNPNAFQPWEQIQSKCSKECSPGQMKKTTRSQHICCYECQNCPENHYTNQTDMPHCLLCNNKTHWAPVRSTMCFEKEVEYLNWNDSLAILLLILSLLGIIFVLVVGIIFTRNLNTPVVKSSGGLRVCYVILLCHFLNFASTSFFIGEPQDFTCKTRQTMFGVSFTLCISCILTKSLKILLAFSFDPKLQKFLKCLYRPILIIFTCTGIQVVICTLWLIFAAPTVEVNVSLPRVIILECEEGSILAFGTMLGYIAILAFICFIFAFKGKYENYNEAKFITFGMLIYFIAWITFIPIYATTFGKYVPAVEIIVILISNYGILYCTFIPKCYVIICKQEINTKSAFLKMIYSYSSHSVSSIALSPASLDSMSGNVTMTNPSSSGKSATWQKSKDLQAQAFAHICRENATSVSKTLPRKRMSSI
# Protocol: HEK‐293 transfected with human GPRC6A isoform cDNA plasmids cells (10^5 cells/well)[30] were cultured in 24‐well plates in DMEM supplemented with 10% fetal bovine serum and 1% penicillin/streptomycin (100 U/mL of penicillin and 100 μg/mL of streptomycin) for 48 h followed by 4 h incubation in DMEM/F12 containing 0.1% BSA and 0.5 mM IBMX to achieve quiescence and preventing cAMP degradation. Quiescent cells were treated with vehicle control, various ligands at concentration as indicated for 40 min at 37°C. Then, the reaction was stopped, and the cells lysed with 0.5 mL 0.1 N HCl. cAMP levels were measured by using Cyclic AMP EIA kit (Cayman Chemical; Ann Arbor, MA, USA) following the manufacture's protocol.
# human GPRC6A isoform 2 = biological target: T2, human GPRC6A isoform 2 (Homo sapiens, UniProt Q5T6X5); experiment: ERK activation (ELISA) in HEK-293 cells transfected with human GPRC6A isoform 2; assay type: cell-based; conditions: Ocn 1.73-26.0 nM, 1 mM calcium, 15 min, Figure 2B
# T2 construct: expressed in transfected cells; host or cells: HEK-293
# T2 sequence (Q5T6X5 19-751 isoform Q5T6X5-2 limits assumed): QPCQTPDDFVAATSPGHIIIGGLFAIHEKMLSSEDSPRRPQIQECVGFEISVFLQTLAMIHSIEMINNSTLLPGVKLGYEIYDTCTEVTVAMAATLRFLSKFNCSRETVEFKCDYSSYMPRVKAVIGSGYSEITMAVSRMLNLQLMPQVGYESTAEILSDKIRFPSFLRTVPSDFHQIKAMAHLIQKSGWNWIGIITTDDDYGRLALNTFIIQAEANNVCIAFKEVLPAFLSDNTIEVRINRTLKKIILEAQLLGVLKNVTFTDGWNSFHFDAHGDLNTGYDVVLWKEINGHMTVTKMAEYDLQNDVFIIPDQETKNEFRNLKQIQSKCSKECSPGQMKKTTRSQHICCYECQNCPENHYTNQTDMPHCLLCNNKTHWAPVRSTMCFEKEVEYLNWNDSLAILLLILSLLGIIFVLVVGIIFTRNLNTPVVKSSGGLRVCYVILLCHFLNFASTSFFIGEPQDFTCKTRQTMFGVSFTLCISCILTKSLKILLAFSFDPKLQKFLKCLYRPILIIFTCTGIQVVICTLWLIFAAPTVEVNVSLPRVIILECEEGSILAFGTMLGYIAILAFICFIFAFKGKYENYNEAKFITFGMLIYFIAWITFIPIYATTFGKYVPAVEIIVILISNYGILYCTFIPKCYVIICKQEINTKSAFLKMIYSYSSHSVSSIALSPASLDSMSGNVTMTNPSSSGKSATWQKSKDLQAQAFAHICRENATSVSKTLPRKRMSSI
# Protocol: All culture reagents were from Invitrogen (Waltham, MA, USA). Human embryonic kidney HEK‐293 cells were obtained from American Type Culture Collection and cultured in DMEM medium supplemented with 10% fetal bovine serum and 1% Penicillin/Streptomycin (P/S). Briefly, HEK‐293 cells transfected with/without human GPRC6A isoforms cDNA plasmids were starved by overnight incubation in serum‐free DMEM/F12 containing 0.1% bovine serum albumin (BSA) and stimulated with various ligands at different doses. […]
"Ocn-induced cAMP accumulation, dose response (human GPRC6A isoform 3)","Ocn-induced ERK activation, dose response (human GPRC6A isoform 2)",Substance,Serum FGF-21 response ([1]; Gprc6a −/− mice),Serum FGF-21 level versus vehicle ([1]; wild-type Gprc6a +/+ mice),Blood glucose response ([2]; Gprc6a −/− mice),"Reduction of blood glucose levels ([2]; wild-type Gprc6a +/+ mice, 8 weeks old, single injection, vehicle saline had no effect)",Serum IL-6 response ([3]; Gprc6a −/− mice),Serum IL-6 level versus vehicle ([3]; wild-type Gprc6a +/+ mice)
–,–,"REVCELNPDC (disulfide 4-10 (inferred)) [Ocn 20–29, synthesized human Ocn decapeptide fragment located in the middle of the protein]",lost,significant increase,lost,~ 10%,lost,significant increase
maintained the cAMP response,attenuated ERK response,"osteocalcin (YLYQWLGAPVPYPDPLEPRREVCELNPDCDELADHIGFQEAYRRFYGPV; not fully specified; ends and bridges not checked; UniProt P02818 52-100, looked up) [Ocn 1–49, full human Ocn (49 aa) synthesized by BioMatik; methods also describe decarboxylated Ocn purified from bovine tibial bone, reference compound]",–,–,–,–,–,–
